# Reference: US20160297833A1, “THIENOPYRIMIDINES AS MKNK1 AND MKNK2 INHIBITORS” (BAYER PHARMA AKTIENGESELLSCHAFT, priority 2013, published 2016)
# Molecular target: T1, human full-length MKNK1 (Homo sapiens, UniProt Q9BUB5, T385D)
# T1 construct: GST (N); purchased Carna Biosciences 02-145; host or cells: insect cells (baculovirus expression system)
# Test: MKNK1 kinase high ATP assay (TR-FRET)
# Format: biochemical
# Conditions: Table 1; MKNK1 kinase high ATP assay, 2 mM ATP; read-out: MKNK1 IC50
# Description: MKNK1 Kinase High ATP Assay
# MKNK1-inhibitory activity at high ATP of compounds of the present invention after their preincubation with MKNK1 was quantified employing the TR-FRET-based MKNK1 high ATP assay as described in the following paragraphs.
# As substrate for the kinase reaction the biotinylated peptide biotin-Ahx-[…] (C-terminus in amide form) was used, which can be purchased e.g. from the company Biosyntan (Berlin-Buch, Germany).
# For the assay 50 nL of a 100 fold concentrated solution of the test compound in DMSO was pipetted into a black low volume 384 well microtiter plate (Greiner Bio-One, Frickenhausen, Germany), 2 μL of a solution of MKNK1 in aqueous assay buffer [50 mM HEPES pH 7.5, 5 mM MgCl2, 1.0 mM dithiothreitol, 0.005% (v/v) Nonidet-P40 (Sigma)] was added and the mixture was incubated for 15 min at 22° C. to allow pre-binding of the test compounds to the enzyme before the start of the kinase reaction. Then the kinase reaction was started by the addition of 3 μL of a solution of adenosine-tri-phosphate (ATP, 3.3 mM=>final conc. in the 5 μL assay volume is 2 mM) and substrate (0.1 μM=>final conc. in the 5 μL assay volume is 0.06 μM) in assay buffer and the resulting mixture was incubated for a reaction time of 30 min at 22° C. The concentration of MKNK1 was adjusted depending of the activity of the enzyme lot and was chosen appropriate to have the assay in the linear range, typical concentrations were in the range of 0.003 μg/mL. The reaction was stopped by the addition of 5 μL of a solution of TR-FRET detection reagents (5 nM streptavidine-XL665 [Cisbio Bioassays, Codolet, France] and 1 nM anti-ribosomal protein S6 (pSer236)-antibody from Invitrogen [#44921G] and 1 nM LANCE EU-W1024 labeled ProteinG [Perkin-Elmer, product no. AD0071]) in an aqueous EDTA-solution (100 mM EDTA, 0.1% (w/v) bovine serum albumin in 50 mM HEPES pH 7.5).
# The resulting mixture was incubated for 1 h at 22° C. to allow the formation of complex between the phosphorylated biotinylated peptide and the detection reagents. Subsequently the amount of phosphorylated substrate was evaluated by measurement of the resonance energy transfer from the Eu-chelate to the streptavidine-XL. Therefore, the fluorescence emissions at 620 nm and 665 nm after excitation at 350 nm were measured in a TR-FRET reader, e.g. a Rubystar (BMG Labtechnologies, Offenburg, Germany) or a Viewlux (Perkin-Elmer). The ratio of the emissions at 665 nm and at 622 nm was taken as the measure for the amount of phosphorylated substrate.
# T1 sequence (Q9BUB5 1-424 isoform Q9BUB5-2 T344D): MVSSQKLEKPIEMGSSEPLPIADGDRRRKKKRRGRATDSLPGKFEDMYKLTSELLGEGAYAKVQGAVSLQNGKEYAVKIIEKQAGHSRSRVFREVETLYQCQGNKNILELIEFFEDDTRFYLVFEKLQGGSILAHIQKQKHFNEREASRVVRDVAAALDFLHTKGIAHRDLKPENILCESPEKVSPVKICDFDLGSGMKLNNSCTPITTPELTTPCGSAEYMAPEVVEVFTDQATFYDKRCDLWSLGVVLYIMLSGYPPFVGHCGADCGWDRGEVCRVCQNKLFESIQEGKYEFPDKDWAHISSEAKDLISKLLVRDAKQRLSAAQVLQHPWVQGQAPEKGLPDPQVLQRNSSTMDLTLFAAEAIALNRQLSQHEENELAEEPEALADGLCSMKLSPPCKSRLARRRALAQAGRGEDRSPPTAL
row,IC50 [nM],SMILES
1,0.5,"COc1cc2[nH]ncc2cc1Nc1ncnc2sc3c(c12)CC[C@H](C(=O)N1CCCC(F)C1)C3 (mixture of isomers) [Example 205, [(3RS)-3-fluoropiperidin-1-yl]{(7S)-4-[(6-methoxy-1H-indazol-5-yl)amino]-5,6,7,8-tetrahydro[1]benzothieno[2,3-d]pyrimidin-7-yl}methanone]"
2,14.3,"CN(C)C(=O)[C@H]1CCc2c(sc3ncnc(Nc4ccc5[nH]ncc5c4)c23)C1 [Example 1, (7S)-4-(1H-Indazol-5-ylamino)-N,N-dimethyl-5,6,7,8-tetrahydro[1]benzothieno[2,3-d]pyrimidine-7-carboxamide]"
3,118,"CN(C)C(=O)[C@@H]1CCc2c(sc3ncnc(Nc4ccc5[nH]ncc5c4)c23)C1 [Example 2, (7R)-4-(1H-Indazol-5-ylamino)-N,N-dimethyl-5,6,7,8-tetrahydro[1]benzothieno[2,3-d]pyrimidine-7-carboxamide]"
4,11,"O=C([C@H]1CCc2c(sc3ncnc(Nc4ccc5[nH]ncc5c4)c23)C1)N1CCC1 [Example 3, Azetidin-1-yl[(7S)-4-(1H-indazol-5-ylamino)-5,6,7,8-tetrahydro[1]benzothieno[2,3-d]pyrimidin-7-yl]methanone]"
5,3.5,"CCN(C)C(=O)[C@H]1CCc2c(sc3ncnc(Nc4ccc5[nH]ncc5c4)c23)C1 [Example 4, (7S)—N-Ethyl-4-(1H-indazol-5-ylamino)-N-methyl-5,6,7,8-tetrahydro[1]benzothieno[2,3-d]pyrimidine-7-carboxamide]"
6,18.3,"CN(CC(F)(F)F)C(=O)[C@H]1CCc2c(sc3ncnc(Nc4ccc5[nH]ncc5c4)c23)C1 [Example 5, (7S)-4-(1H-Indazol-5-ylamino)-N-methyl-N-(2,2,2-trifluoroethyl)-5,6,7,8-tetrahydro[1]benzothieno[2,3-d]pyrimidine-7-carboxamide]"
7,11,"CN(CCC(F)(F)F)C(=O)[C@H]1CCc2c(sc3ncnc(Nc4ccc5[nH]ncc5c4)c23)C1 [Example 6, (7S)-4-(1H-Indazol-5-ylamino)-N-methyl-N-(3,3,3-trifluoropropyl)-5,6,7,8-tetrahydro[1]benzothieno[2,3-d]pyrimidine-7-carboxamide]"
8,6,"CC(C)N(C)C(=O)[C@H]1CCc2c(sc3ncnc(Nc4ccc5[nH]ncc5c4)c23)C1 [Example 7, (7S)-4-(1H-Indazol-5-ylamino)-N-methyl-N-(propan-2-yl)-5,6,7,8-tetrahydro[1]benzothieno[2,3-d]pyrimidine-7-carboxamide]"
9,8.3,"CCN(C(=O)[C@H]1CCc2c(sc3ncnc(Nc4ccc5[nH]ncc5c4)c23)C1)C(C)C [Example 8, (7S)—N-Ethyl-4-(1H-indazol-5-ylamino)-N-(propan-2-yl)-5,6,7,8-tetrahydro[1]benzothieno[2,3-d]pyrimidine-7-carboxamide]"
10,25.6,"O=C([C@H]1CCc2c(sc3ncnc(Nc4ccc5[nH]ncc5c4)c23)C1)N1CCOCC1 [Example 9, [(7S)-4-(1H-Indazol-5-ylamino)-5,6,7,8-tetrahydro[1]benzothieno[2,3-d]pyrimidin-7-yl](morpholin-4-yl)methanone]"
11,11.1,"O=C([C@H]1CCc2c(sc3ncnc(Nc4ccc5[nH]ncc5c4)c23)C1)N1C[C@@H]2C[C@H]1CO2 [Example 10, [(7S)-4-(1H-Indazol-5-ylamino)-5,6,7,8-tetrahydro[1]benzothieno[2,3-d]pyrimidin-7-yl][(1S,4S)-2-oxa-5-azabicyclo[2.2.1]hept-5-yl]methanone]"
12,4,"O=C([C@H]1CCc2c(sc3ncnc(Nc4ccc5[nH]ncc5c4)c23)C1)N1C[C@H]2C[C@@H]1CO2 [Example 11, [(7S)-4-(1H-Indazol-5-ylamino)-5,6,7,8-tetrahydro[I]benzothieno[2,3-d]pyrimidin-7-yl][(1R,4R)-2-oxa-5-azabicyclo[2.2.1]hept-5-yl]methanone]"
13,22.7,"O=C([C@H]1CCc2c(sc3ncnc(Nc4ccc5[nH]ncc5c4)c23)C1)N1CC2(COC2)C1 [Example 12, [(7S)-4-(1H-Indazol-5-ylamino)-5,6,7,8-tetrahydro[1]benzothieno[2,3-d]pyrimidin-7-yl](2-oxa-6-azaspiro[3.3]hept-6-yl)methanone]"
14,3.2,"COCCN(C)C(=O)[C@H]1CCc2c(sc3ncnc(Nc4ccc5[nH]ncc5c4)c23)C1 [Example 13, (7S)-4-(1H-Indazol-5-ylamino)-N-(2-methoxyethyl)-N-methyl-5,6,7,8-tetrahydro[1]benzothieno[2,3-d]pyrimidine-7-carboxamide]"
15,5.5,"CN1CCN(C(=O)[C@H]2CCc3c(sc4ncnc(Nc5ccc6[nH]ncc6c5)c34)C2)CC1 [Example 14, [(7S)-4-(1H-Indazol-5-ylamino)-5,6,7,8-tetrahydro[I]benzothieno[2,3-d]pyrimidin-7-yl](4-methylpiperazin-1-yl)methanone]"
16,88.5,"CN1CCN(C(=O)[C@@H]2CCc3c(sc4ncnc(Nc5ccc6[nH]ncc6c5)c34)C2)CC1 [Example 15, [(7R)-4-(1H-Indazol-5-ylamino)-5,6,7,8-tetrahydro[1]benzothieno[2,3-d]pyrimidin-7-yl](4-methylpiperazin-1-yl)methanone]"
17,2.4,"COCCN(CCOC)C(=O)[C@H]1CCc2c(sc3ncnc(Nc4ccc5[nH]ncc5c4)c23)C1 [Example 16, (7S)-4-(1H-Indazol-5-ylamino)-N,N-bis(2-methoxyethyl)-5,6,7,8-tetrahydro[1]benzothieno[2,3-d]pyrimidine-7-carboxamide]"
18,9.4,"CC1(O)CN(C(=O)[C@H]2CCc3c(sc4ncnc(Nc5ccc6[nH]ncc6c5)c34)C2)C1 [Example 17, (3-Hydroxy-3-methylazetidin-1-yl)[(7S)-4-(1H-indazol-5-ylamino)-5,6,7,8-tetrahydro[1]benzothieno[2,3-d]pyrimidin-7-yl]methanone]"
19,3.9,"CN(CC(C)(C)O)C(=O)[C@H]1CCc2c(sc3ncnc(Nc4ccc5[nH]ncc5c4)c23)C1 [Example 18, (7S)—N-(2-Hydroxy-2-methylpropyl)-4-(1H-indazol-5-ylamino)-N-methyl-5,6,7,8-tetrahydro[1]benzothieno[2,3-d]pyrimidine-7-carboxamide]"
20,2.5,"CCN(CCO)C(=O)[C@H]1CCc2c(sc3ncnc(Nc4ccc5[nH]ncc5c4)c23)C1 [Example 19, (7S)—N-Ethyl-N-(2-hydroxyethyl)-4-(1H-indazol-5-ylamino)-5,6,7,8-tetrahydro[1]benzothieno[2,3-d]pyrimidine-7-carboxamide]"
21,1,"COc1cc2[nH]ncc2cc1Nc1ncnc2sc3c(c12)CC[C@H](C(=O)N(C)C)C3 [Example 20, (7S)-4-[(6-Methoxy-1H-indazol-5-yl)amino]-N,N-dimethyl-5,6,7,8-tetrahydro[1]benzothieno[2,3-d]pyrimidine-7-carboxamide]"
22,0.4,"COc1cc2[nH]ncc2cc1Nc1ncnc2sc3c(c12)CC[C@H](C(=O)N1CCC1)C3 [Example 21, Azetidin-1-yl{(7S)-4-[(6-methoxy-1H-indazol-5-yl)amino]-5,6,7,8-tetrahydro[1]benzothieno[2,3-d]pyrimidin-7-yl}methanone]"
23,21.4,"COc1cc2[nH]ncc2cc1Nc1ncnc2sc3c(c12)CC[C@@H](C(=O)N1CCC1)C3 [Example 22, Azetidin-1-yl{(7R)-4-[(6-methoxy-1H-indazol-5-yl)amino]-5,6,7,8-tetrahydro[1]benzothieno[2,3-d]pyrimidin-7-yl}methanone]"
24,0.5,"COc1cc2[nH]ncc2cc1Nc1ncnc2sc3c(c12)CC[C@H](C(=O)N1CCCC1)C3 [Example 23, {(7S)-4-[(6-Methoxy-1H-indazol-5-yl)amino]-5,6,7,8-tetrahydro[1]benzothieno[2,3-d]pyrimidin-7-yl}(pyrrolidin-1-yl)methanone]"
25,0.2,"CCN(C)C(=O)[C@H]1CCc2c(sc3ncnc(Nc4cc5cn[nH]c5cc4OC)c23)C1 [Example 24, (7S)—N-Ethyl-4-[(6-methoxy-1H-indazol-5-yl)amino]-N-methyl-5,6,7,8-tetrahydro[1]benzothieno[2,3-d]pyrimidine-7-carboxamide]"

# Same assay, conditions: Table 2; ratio of the IC50-value of an R-enantiomer and its corresponding S-enantiomer
row,Activity-Ratio MKNK1,SMILES
1,8.3,"CN(C)C(=O)[C@H]1CCc2c(sc3ncnc(Nc4ccc5[nH]ncc5c4)c23)C1 [Example 1, (7S)-4-(1H-Indazol-5-ylamino)-N,N-dimethyl-5,6,7,8-tetrahydro[1]benzothieno[2,3-d]pyrimidine-7-carboxamide]"
2,16.1,"CN1CCN(C(=O)[C@H]2CCc3c(sc4ncnc(Nc5ccc6[nH]ncc6c5)c34)C2)CC1 [Example 14, [(7S)-4-(1H-Indazol-5-ylamino)-5,6,7,8-tetrahydro[I]benzothieno[2,3-d]pyrimidin-7-yl](4-methylpiperazin-1-yl)methanone]"
3,53.1,"COc1cc2[nH]ncc2cc1Nc1ncnc2sc3c(c12)CC[C@H](C(=O)N1CCC1)C3 [Example 21, Azetidin-1-yl{(7S)-4-[(6-methoxy-1H-indazol-5-yl)amino]-5,6,7,8-tetrahydro[1]benzothieno[2,3-d]pyrimidin-7-yl}methanone]"
4,39.1,"CCN(C)C(=O)[C@H]1CCc2c(sc3ncnc(Nc4cc5cn[nH]c5cc4OC)c23)C1 [Example 24, (7S)—N-Ethyl-4-[(6-methoxy-1H-indazol-5-yl)amino]-N-methyl-5,6,7,8-tetrahydro[1]benzothieno[2,3-d]pyrimidine-7-carboxamide]"
